Data as given in PMC8876135, “The Catestatin-Derived Peptides Are New Actors to Fight the Development of Oral Candidosis” (International Journal of Molecular Sciences, 2022).
Converted amounts (≈) assume the structure as drawn. Read-outs that look alike come from different tables or passages of the source. Non-standard residues stand in square brackets, D forms with d. Residues, ends and D or L forms follow the SMILES beside them.

Legend:
“R” C. albicans = assay: Transmission electron microscopy of treated cells; assay type: cell-based, Candida albicans; settings: 1 × MIC and 10 × MIC, 1 h at 37 °C
Procedure: (§1) Precultures of sensitive and resistant Candida albicans strains were incubated for 2 h at 37 °C without shaking on glass bottom 24-well microplates previously treated with poly-L-lysine. The L-bCtl or D-bCtl peptides at concentrations of 1X MIC and 10X MIC were then added to the culture and incubated for 1 h at 37 °C with minimal shaking. The control samples correspond to the incubation of the different Candida albicans strains without any prior treatment. After 1 h incubation with or without each peptide of interest and a brief rinsing in 0.125 M cacodylate buffer, cells were fixed for 2 h 30 min in a 4% (v/v) glutaraldehyde buffered in 0.1 M sodium phosphate at pH 7.2. This step was followed with three 10 min washes in 0.1 M phosphate buffer at pH 7.2. Then the samples were post-fixed in a freshly prepared 2% (v/v) aqueous solution of potassium permanganate for 45 min at room temperature. The samples were washed three more times and dehydrated in graded series of ethanol of 7 min each. […]
(§2) Ultrathin sections were performed using a Reichert Jung Ultra-cut E ultra-microtome (Leica Microsystems, Nanterre, France) equipped with a diamond knife. […] Images were recorded on Kodak SO163 film (Sigma Aldrich, Saint-Quentin Fallavier, France). […]

“S” C. albicans = assay: Transmission electron microscopy of treated cells; assay type: cell-based, Candida albicans; settings: 1 × MIC and 10 × MIC, 1 h at 37 °C
Procedure: as §1, §2

[1] = system: Candida albicans “S” (ATCC 10231); set-up: method as in Dartevelle et al. [28]; settings: ref Dartevelle et al. [28], cited from earlier work; for MIC C. albicans “S”: values marked *, MIC = 100% growth inhibition
Candida glabrata “S” = assay type: cell-based; settings: 24 h, pH 5.6
Procedure: (§3) Strains of Candida albicans, Candida tropicalis and Candida glabrata, frequently found in cases of oral candidosis, were tested for L-bCtl and D-bCtl antimicrobial activity. The sensitive strain of C. albicans (ATCC 10231^TM) was provided by ATCC (Manassas, VA, USA). The resistant strain of C. albicans, the sensitive and resistant strains of C. tropicalis as well as the sensitive and resistant strains of C. glabrata were kindly provided by Dr Valérie Letscher-Bru (Laboratory of Parasitolology and Medical Mycology, Strasbourg, France).
(§4) Each Candida strain was first plated on agar plates and cultured for 24 h at 37 °C. After incubation, one colony per isolate was transferred into 5 mL of Sabouraud medium pH 5.6 (Sigma-Aldrich, Le Pont-de-Claix, France) supplemented with tetracycline (10 μg/mL) and cefotaxime (10 μg/mL) and incubated aerobically under agitation at 37 °C for 24 h. The resulting cultures were resuspended at an absorbance of 0.001 (OD600nm = 0.001) in Sabouraud medium. The OD600nm was evaluated with a spectrophotometer (BIO-RAD Smatspec^TM plus, Schiltigheim, France). In preliminary experiments, we tested RPMI-1640 culture and Sabouraud media. Similar data were obtained but the experiments were more reproducible with Sabouraud than with RPMI1640. Therefore, Sabouraud medium was used in the present study.
(§5) The yeasts (OD600nm = 0.001) were then plated on 96-well microplates and treated with different concentrations of the peptides of interest. After 24 h incubation at 37 °C under agitation, yeast growth was assessed by optical density (OD600nm) using a microplate spectrophotometer (Multiscan EX, Thermo Fisher Scientific, Waltham, MA, USA). All tests were performed in triplicate. The MIC (minimal inhibitory concentration), defined as the lowest concentration of drug able to inhibit 100% of the growth of a pathogen, was determined for the different peptides against all previously described Candida strains, using a modified Gompertz model.

Candida tropicalis “R” = assay type: cell-based; settings: 24 h, pH 5.6
Procedure: as §3, §4, §5

Candida glabrata “R” = assay type: cell-based; settings: 24 h, pH 5.6
Procedure: as §3, §4, §5

Candida tropicalis “S” = assay type: cell-based; settings: 24 h, pH 5.6
Procedure: as §3, §4, §5

Candida albicans “R” = assay type: cell-based; settings: 24 h, pH 5.6
Procedure: as §3, §4, §5

C. lusitaniae “S” = assay: Susceptibility of Candida strains to antifungal drugs; assay type: cell-based; set-up: key to Susceptibility category: S: susceptible standard dosing regimen; R: resistant, therapeutic failure with increased exposure; I: susceptible increased exposure; settings: strain C. lusitaniae “S”; for Susceptibility category: EUCAST breakpoints (CLSI for Caspofungin)
C. tropicalis “S” = assay: as above; assay type: cell-based; set-up: key to Susceptibility category: S: susceptible standard dosing regimen; R: resistant, therapeutic failure with increased exposure; I: susceptible increased exposure; settings: strain C. tropicalis “S”; for Susceptibility category: EUCAST breakpoints (CLSI for Caspofungin)
Procedure: as §3

C. glabrata “R” = assay: as above; assay type: cell-based; set-up: key to Susceptibility category: S: susceptible standard dosing regimen; R: resistant, therapeutic failure with increased exposure; I: susceptible increased exposure; settings: strain C. glabrata “R”; for Susceptibility category: EUCAST breakpoints (CLSI for Caspofungin)
Procedure: as §3

C. tropicalis “R” = assay: as above; assay type: cell-based; set-up: key to Susceptibility category: S: susceptible standard dosing regimen; R: resistant, therapeutic failure with increased exposure; I: susceptible increased exposure; settings: strain C. tropicalis “R”; for Susceptibility category: EUCAST breakpoints (CLSI for Caspofungin)
Procedure: as §3

C. glabrata “S” = assay: as above; assay type: cell-based; set-up: key to Susceptibility category: S: susceptible standard dosing regimen; R: resistant, therapeutic failure with increased exposure; I: susceptible increased exposure; settings: strain C. glabrata “S”; for Susceptibility category: EUCAST breakpoints (CLSI for Caspofungin)
Procedure: as §3

C. albicans “R” = assay: as above; assay type: cell-based; set-up: key to Susceptibility category: S: susceptible standard dosing regimen; R: resistant, therapeutic failure with increased exposure; I: susceptible increased exposure; settings: strain C. albicans “R”; for Susceptibility category: EUCAST breakpoints (CLSI for Caspofungin)
Procedure: as §3

C. albicans “S” = assay: as above; assay type: cell-based; set-up: key to Susceptibility category: S: susceptible standard dosing regimen; R: resistant, therapeutic failure with increased exposure; I: susceptible increased exposure; settings: strain C. albicans “S”; for Susceptibility category: EUCAST breakpoints (CLSI for Caspofungin)
Procedure: as §3

[2] = system: Candida albicans “S” (ATCC 10231); assay type: cell-based; settings: ATCC 10231, 24 h, pH 5.6
Procedure: as §3, §4, §5

[3] = Clavispora lusitaniae, read-out: MIC
[4] = Candida tropicalis, read-out: MIC
[5] = Nakaseomyces glabratus, read-out: MIC
[6] = Candida albicans, read-out: MIC

MIC Candida glabrata “S” (Candida glabrata “S”) [µg/mL] | MIC Candida tropicalis “R” (Candida tropicalis “R”) [µg/mL] | MIC Candida glabrata “R” (Candida glabrata “R”) [µg/mL] | MIC Candida tropicalis “S” (Candida tropicalis “S”) [µg/mL] | MIC C. albicans “R” (Candida albicans “R”) [µg/mL] | MIC (C. lusitaniae “S”; [3]) [µg/mL] | MIC (C. tropicalis “S”; [4]) [µg/mL] | MIC (C. glabrata “R”; [5]) [µg/mL] | MIC (C. tropicalis “R”; [4]) [µg/mL] | MIC (C. glabrata “S”; [5]) [µg/mL] | MIC (C. albicans “R”; [6]) [µg/mL] | MIC (C. albicans “S”; [6]) [µg/mL] | Compound | Susceptibility category (C. lusitaniae “S”) | Susceptibility category (C. tropicalis “S”) | Susceptibility category (C. glabrata “R”) | Susceptibility category (C. tropicalis “R”) | Susceptibility category (C. glabrata “S”) | Susceptibility category (C. albicans “R”) | Susceptibility category (C. albicans “S”) | also measured
13.4 (≈ 7.2 µM) | 2.0 (≈ 1.08 µM) | 15.0 (≈ 8.06 µM) | 8.1 (≈ 4.35 µM) | 9.6 (≈ 5.16 µM) |  |  |  |  |  |  |  | CSCC[C@@H](NC(=O)[C@@H](CO)NC(=O)[C@H](N)CCCNC(=N)N)C(=O)N[C@H](CCCNC(=N)N)C(=O)N[C@H](CC(C)C)C(=O)N[C@H](CO)C(=O)N[C@H](Cc1ccccc1)C(=O)N[C@H](CCCNC(=N)N)C(=O)N[C@H](C)C(=O)N[C@H](CCCNC(=N)N)C(=O)NCC(=O)N[C@H](Cc1ccc(O)cc1)C(=O)NCC(=O)N[C@H](Cc1ccccc1)C(=O)N[C@H](CCCNC(=N)N)C(=O)O [Peptide P1] (H-[dR][dS][dM][dR][dL][dS][dF][dR][dA][dR]G[dY]G[dF][dR]-OH; N-terminus and C-terminus assumed) |  |  |  |  |  |  |  | TEM observation (“R” C. albicans): fungal membrane lysis; TEM observation (“S” C. albicans): fungal membrane lysis; MIC C. albicans “S” (as stated in discussion) ([1]; peptide alone, same figures as the * values of Tables 2 and 3): 5.5 µM (≈ 10.2 µg/mL); MIC C. albicans “S” [1]: 5.5 * µg/mL; MIC C. albicans “S” ([1]; listed as D-form of bCtl): 5.5 µg/mL (≈ 2.96 µM)
 |  |  |  |  | 0.012 (≈ 0.0344 µM) | 0.047 (≈ 0.135 µM) | 8 (≈ 22.9 µM) | 1.5 (≈ 4.29 µM) | 0.032 (≈ 0.0916 µM) | > 32 | 0.002 (≈ 0.00573 µM) | C[C@@H](c1ncncc1F)[C@](O)(Cn1cncn1)c1ccc(F)cc1F [Voriconazole] | S | S | R | R | S | R | S | 
 |  |  |  |  |  |  |  |  |  |  |  | Caspofungin | S | S | I | S | I | S | S | MIC (C. lusitaniae “S”): 0.125 µg/mL; MIC (C. tropicalis “S”): 0.125 µg/mL; MIC (C. glabrata “R”): 0.25 µg/mL; MIC (C. tropicalis “R”): 0.125 µg/mL; MIC (C. glabrata “S”): 0.25 µg/mL; MIC (C. albicans “R”): 0.047 µg/mL; MIC (C. albicans “S”): 0.094 µg/mL
>240 | >240 | >240 | >240 | >240 |  |  |  |  |  |  |  | CSCC[C@H](NC(=O)[C@H](CO)NC(=O)[C@@H](N)CO)C(=O)N[C@@H](CCCCN)C(=O)N[C@@H](CC(C)C)C(=O)N[C@@H](CO)C(=O)N[C@@H](Cc1ccccc1)C(=O)N[C@@H](CCCNC(=N)N)C(=O)N[C@@H](C)C(=O)N[C@@H](CCCNC(=N)N)C(=O)N[C@@H](C)C(=O)N[C@@H](Cc1ccc(O)cc1)C(=O)NCC(=O)N[C@@H](Cc1ccccc1)C(=O)N[C@@H](CCCNC(=N)N)C(=O)NCC(=O)N1CCC[C@H]1C(=O)NCC(=O)N1CCC[C@H]1C(=O)N[C@@H](CCC(N)=O)C(=O)N[C@@H](CC(C)C)C(=O)O [hCts] (H-SSMKLSFRARAYGFRGPGPQL-OH) |  |  |  |  |  |  |  | MIC C. albicans “S” [2]: >240 µg/mL
 |  |  |  |  | 0.75 (≈ 0.812 µM) | 0.125 (≈ 0.135 µM) | 0.5 (≈ 0.541 µM) | 0.125 (≈ 0.135 µM) | 0.125 (≈ 0.135 µM) | 0.125 (≈ 0.135 µM) | 0.19 (≈ 0.206 µM) | C[C@@H]1[C@H](O)[C@@H](C)/C=C/C=C/C=C/C=C/C=C/C=C/C=C/[C@H](O[C@@H]2O[C@H](C)[C@@H](O)[C@H](N)[C@@H]2O)C[C@@H]2O[C@](O)(C[C@@H](O)C[C@@H](O)[C@H](O)CC[C@@H](O)C[C@@H](O)CC(=O)O[C@H]1C)C[C@H](O)[C@H]2C(=O)O [Amphotericin B] | S | S | S | S | S | S | S | 
 |  |  |  |  | 0.38 (≈ 1.24 µM) | 0.5 (≈ 1.63 µM) | > 256 | 96 (≈ 313 µM) | 3 (≈ 9.8 µM) | > 256 | 0.125 (≈ 0.408 µM) | OC(Cn1cncn1)(Cn1cncn1)c1ccc(F)cc1F [Fluconazole] | S | S | R | R | I | R | S | 
